Biological target: T1, hCRTH2 (Homo sapiens, UniProt Q9Y5Y4)
T1 construct: expressed in transfected cells; host or cells: HEK (human embryonic kidney) cells expressing hCRTH2; membrane preparation
T1 sequence (Q9Y5Y4 1-395): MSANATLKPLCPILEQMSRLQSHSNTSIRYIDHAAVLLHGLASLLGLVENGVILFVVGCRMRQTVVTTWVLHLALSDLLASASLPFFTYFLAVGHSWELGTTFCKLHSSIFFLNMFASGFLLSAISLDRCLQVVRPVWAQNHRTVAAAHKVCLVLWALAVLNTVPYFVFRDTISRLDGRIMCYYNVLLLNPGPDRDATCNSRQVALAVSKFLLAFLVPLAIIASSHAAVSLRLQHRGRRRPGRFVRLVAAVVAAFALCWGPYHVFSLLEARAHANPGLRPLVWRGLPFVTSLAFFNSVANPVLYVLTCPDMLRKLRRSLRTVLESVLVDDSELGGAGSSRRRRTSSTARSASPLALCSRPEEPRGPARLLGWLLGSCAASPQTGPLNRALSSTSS
Assay: Radioligand binding assay ([3H]PGD2 competition, HEK-hCRTH2 membranes)
Method in brief: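 Using membranes of an HEK line stably carrying hCRTH2, ligands were tested against [3H]PGD2 (3.0 nM) in pH 7.4 Tris buffer containing 2 mM MnCl2 and 1 mM EDTA. After one hour at room temperature, filters were washed cold and counted.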

SMILES: O=C(O)CCCCc1nc2cc(C(=O)N3C[C@H]4CC[C@@H]3CN4Cc3ccccc3)ccc2nc1-c1ccc(Cl)cc1 [compound 698, 5-(7-((1R,4R)-5-benzyl-2,5-diazabicyc1o[2.2.2]octane-2-carbonyl)-3-(4-chlorophenyl)quinoxalin-2-yl)pentanoic acid]
- Ki ([3H]PGD2 competition, Table B): 2.1 to 20 nM

SMILES: O=C(O)CCCCc1nc2cc(C(=O)N3C[C@H]4C[C@@H]3CN4C(=O)OCc3ccccc3)ccc2nc1-c1ccc(Cl)cc1 [compound 699, 5-(7-((1R,4R)-5-((benzyloxy)carbonyl)-2,5-diazabicyclo[2.2.1]heptane-2-carbonyl)-3-(4-chlorophenyl)quinoxalin-2-yl)pentanoic acid]
- Ki ([3H]PGD2 competition, Table B): 2.1 to 20 nM

SMILES: Cc1nc(N2CCN(C(=O)c3ccc4nc(-c5ccc(Cl)cc5)c(CCCCC(=O)O)nc4c3)CC2)cn1C [compound 700, 5-(3-(4-chlorophenyl)-7-(4-(1,2-dimethyl-1H-imidazol-4-yl)piperazine-1-carbonyl)quinoxalin-2-yl)pentanoic acid]
- Ki ([3H]PGD2 competition, Table B): 20.1 to 200 nM

SMILES: O=C(O)CCCCc1nc2cc(C(=O)N3CCN(c4nc5ccccc5o4)CC3)ccc2nc1-c1ccc(Cl)cc1 [compound 701, 5-(7-(4-(benzo[d]oxazol-2-yl)piperazine-1-carbonyl)-3-(4-chlorophenyl)quinoxalin-2-yl)pentanoic acid]
- Ki ([3H]PGD2 competition, Table B): 2.1 to 20 nM

SMILES: O=C(O)CCCCc1nc2cc(C(=O)N3[C@@H]4CC[C@H]3CN(Cc3ccccc3)C4)ccc2nc1-c1ccc(Cl)cc1 [compound 702]
- Ki ([3H]PGD2 competition, Table B): 2.1 to 20 nM

SMILES: Cc1cc(N2CCN(C(=O)c3ccc4nc(-c5ccc(Cl)cc5)c(CCCCC(=O)O)nc4c3)CC2)cc(C)n1 [compound 703, 5-(3-(4-chlorophenyl)-7-(4-(2,6-dimethylpyridin-4-yl)piperazine-1-carbonyl)quinoxalin-2-yl)pentanoic acid]
- Ki ([3H]PGD2 competition, Table B): 201 to 700 nM

SMILES: O=C(O)CCCCc1nc2cc(C(=O)N3C[C@H]4CC[C@@H](C3)N4Cc3ccccc3)ccc2nc1-c1ccc(Cl)cc1 [compound 704, 5-(7-((1R,5S)-8-benzyl-3,8-diazabicyclo[3.2.1]octane-3-carbonyl)-3-(4-chlorophenyl)quinoxalin-2-yl)pentanoic acid]
- Ki ([3H]PGD2 competition, Table B): 2.1 to 20 nM

SMILES: O=C(O)CCCCc1nc2cc(C(=O)N3CCn4ccnc4C3)ccc2nc1-c1ccc(Cl)cc1 [compound 705, 5-(3-(4-chlorophenyl)-7-(5,6,7,8-tetrahydroimidazo[1,2-a]pyrazine-7-carbonyl)quinoxalin-2-yl)pentanoic acid]
- Ki ([3H]PGD2 competition, Table B): 201 to 700 nM

SMILES: O=C(N[C@@H]1CCCc2ccccc21)c1ccc2nc(-c3ccccc3)c(CCCC(O)C(=O)O)nc2c1 (stereo partly drawn) [compound 706, 2-hydroxy-5-(3-phenyl-7-(((R)-1,2,3,4-tetrahydronaphthalen-1-yl)carbamoyl)quinoxalin-2-yl)pentanoic acid]
- Ki ([3H]PGD2 competition, Table B): 201 to 700 nM

SMILES: CC1(C)CCC(NC(=O)c2ccc3nc(-c4ccccc4)c(CCCCC(=O)O)nc3c2)c2ccccc21 (stereo not drawn) [compound 707, 5-(7-((4,4-dimethyl-1,2,3,4-tetrahydronaphthalen-1-yl)carbamoyl)-3-phenylquinoxalin-2-yl)pentatioic acid]
- Ki ([3H]PGD2 competition, Table B): 2.1 to 20 nM

SMILES: O=C(O)CCCCc1nc2cc(C(=O)N[C@H]3CCS(=O)(=O)c4ccccc43)ccc2nc1-c1ccc(F)cc1 [compound 709, (S)-5-(7-((1,1-dioxidothiochroman-4-yl)carbamoyl)-3-(4-fluorophenyl)quinoxalin-2-yl)pentanoic acid]
- Ki ([3H]PGD2 binding, values in text): 18.4 nM
- Ki ([3H]PGD2 competition, Table B): 2.1 to 20 nM

SMILES: O=C(O)CCCCc1nc2cc(C(=O)N[C@H]3CC(=O)Nc4ccccc43)ccc2nc1-c1ccccc1 [compound 710, (S)-5-(7-((2-oxo-1,2,3,4-tetrahydroquinolin-4-yl)carbamoyl)-3-phenylquinoxalin-2-yl)pentanoic acid]
- Ki ([3H]PGD2 competition, Table B): 20.1 to 200 nM

SMILES: O=C(O)CCCCc1nc2cc(C(=O)N[C@@H]3CC(=O)Nc4ccccc43)ccc2nc1-c1ccccc1 [compound 711, (R)-5-(7-((2-oxo-1,2,3,4-tetrahydroquinolin-4-yl)carbamoyl)-3-phenylquinoxalin-2-yl)pentanoic acid]
- Ki ([3H]PGD2 competition, Table B): 2.1 to 20 nM

SMILES: O=C(O)CCCCc1nc2cc(C(=O)N[C@H]3CC(=O)Nc4ccc(F)cc43)ccc2nc1-c1ccccc1 [compound 712, (S)-5-(7-((6-fluoro-2-oxo-1,2,3,4-tetrahydroquinolin-4-yl)carbamoyl)-3-phenylquinoxalin-2-yl)pentanoic acid]
- Ki ([3H]PGD2 competition, Table B): 20.1 to 200 nM

SMILES: O=C(O)CCCCc1nc2cc(C(=O)N[C@@H]3CC(=O)Nc4ccc(F)cc43)ccc2nc1-c1ccccc1 [compound 713, (R)-5-(7-((6-fluoro-2-oxo-1,2,3,4-tetrahydroquinolin-4-yl)carbamoyl)-3-phenylquinoxalin-2-yl)pentanoic acid]
- Ki ([3H]PGD2 competition, Table B): 2.1 to 20 nM

SMILES: O=C(O)CCCCc1nc2cc(C(=O)N[C@H]3CCS(=O)(=O)c4ccccc43)ccc2nc1-c1ccccc1 [compound 714, (S)-5-(7-((1,1-dioxidothiochroman-4-yl)carbamoyl)-3-phenylquinoxalin-2-yl)pentanoic acid]
- Ki ([3H]PGD2 competition, Table B): 20.1 to 200 nM

SMILES: O=C(O)CCCCc1nc2cc(C(=O)N[C@@H]3CCS(=O)(=O)c4ccccc43)ccc2nc1-c1ccccc1 [compound 715, (R)-5-(7-((1,1-dioxidothiochroman-4-yl)carbamoyl)-3-phenylquinoxalin-2-yl)pentanoic acid]
- Ki ([3H]PGD2 competition, Table B): 2.1 to 20 nM

SMILES: O=C(O)CCCCc1nc2cc(C(=O)N[C@@H]3CCCc4ccccc43)c(F)cc2nc1-c1ccccc1 [compound 716, (R)-5-(6-fluoro-3-phenyl-7-((1,2,3,4-tetrahydro-naphthalen-1-yl)carbamoyl)quinoxalin-2-yl)pentanoic acid]
- Ki ([3H]PGD2 competition, Table B): 2.1 to 20 nM

SMILES: O=C(O)CCCCc1nc2cc(C(=O)N[C@@H]3CCCc4ccccc43)c(F)cc2nc1-c1ccc(F)cc1 [compound 717, (R)-5-(6-fluoro-3-(4-fluorophenyl)-7-((1,2,3,4-tetrahydronaphthalen-1-yl)carbamoyl)quinoxalin-2-yl)pentanoic acid]
- Ki ([3H]PGD2 competition, Table B): 2.1 to 20 nM

SMILES: O=C(O)CCCCc1nc2cc(C(=O)N[C@@H]3CCCc4ccccc43)c(F)cc2nc1-c1ccc(Cl)cc1 [compound 718, (R)-5-(3-(4-chlorophenyl)-6-fluoro-7-((1,2,3,4-tetrahydronaphthalen-1-yl)carbamoyl)quinoxalin-2-yl)pentanoic acid]
- Ki ([3H]PGD2 competition, Table B): 2.1 to 20 nM

SMILES: O=C(O)CCCCc1nc2cc(C(=O)N3C4C=C(c5ccccc5)CC3CC4)ccc2nc1-c1ccccc1 (stereo not drawn) [compound 719, 5-(3-phenyl-7-(3-phenyl-8-azabicyclo[3.2.1]oct-2-ene-8-carbonyl)quinoxalin-2-yl)pentanoic acid]
- Ki ([3H]PGD2 competition, Table B): 2.1 to 20 nM

SMILES: O=C(O)CCCCc1nc2cc(C(=O)N[C@@H]3CCOc4cc(C(F)(F)F)ccc43)ccc2nc1-c1ccc(Cl)cc1 [compound 720, (R)-5-(3-(4-chlorophenyl)-7-((7-(trifluoromethyl)chroman-4-yl)carbamoyl)quinoxalin-2-yl)pentanoic acid]
- Ki ([3H]PGD2 competition, Table B): 2.1 to 20 nM

SMILES: CC1(C)CC[C@H](NC(=O)c2ccc3nc(-c4ccccc4)c(CCCCC(=O)O)nc3c2)c2ccccc21 [compound 721, (S)-5-(7-((4,4-dimethyl-1,2,3,4-tetrahydronaphthalen-1-yl)carbamoyl)-3-phenylquinoxalin-2-yl)pentanoic acid]
- Ki ([3H]PGD2 competition, Table B): 2.1 to 20 nM

SMILES: CC1(C)CC[C@@H](NC(=O)c2ccc3nc(-c4ccccc4)c(CCCCC(=O)O)nc3c2)c2ccccc21 [compound 722, (R)-5-(7-((4,4-dimethyl-1,2,3,4-tetrahydronaphthalen-1-yl)carbamoyl)-3-phenylquinoxalin-2-yl)pentanoic acid]
- Ki ([3H]PGD2 competition, Table B): 2.1 to 20 nM

SMILES: O=C(O)CCCc1nc2cc(C(=O)N[C@@H]3CCCc4cc(F)ccc43)ccc2nc1-c1ccccc1 [compound 723, (R)-4-(7-((6-fluoro-1,2,3,4-tetrahydronaphthalen-1-yl)carbamoyl)-3-phenylquinoxalin-2-yl)butanoic acid]
- Ki ([3H]PGD2 competition, Table B): 20.1 to 200 nM

SMILES: O=C(O)CCCc1nc2cc(C(=O)N[C@@H]3CCCc4ccccc43)ccc2nc1-c1ccccc1 [compound 724, (R)-4-(3-phenyl-7-((1,2,3,4-tetrahydronaphthalen-l-yl)carbamoyl)quinoxalin-2-yl)butanoic acid]
- Ki ([3H]PGD2 competition, Table B): 201 to 700 nM

SMILES: O=C(O)CCCc1nc2cc(C(=O)N[C@@H]3CCOc4cc(F)ccc43)ccc2nc1-c1ccccc1 [compound 725, (R)-4-(7-((7-fluorochroman-4-yl)carbamoyl)-3-phenylquinoxalin-2-yl)butanoic acid]
- Ki ([3H]PGD2 competition, Table B): 201 to 700 nM

SMILES: C[C@@H](NC(=O)c1cc2nc(CCCCC(=O)O)c(-c3ccccc3)nc2cc1F)c1ccc(F)cc1 [compound 727, (R)-5-(6-fluoro-7-((1-(4-fluorophenyl)ethyl)carbamoyl)-3-phenylquinoxalin-2-yl)pentanoic acid]
- Ki ([3H]PGD2 competition, Table B): 2.1 to 20 nM

SMILES: O=C(O)CCCCc1nc2cc(C(=O)N[C@@H]3CCOc4ccccc43)c(F)cc2nc1-c1ccccc1 [compound 728, (R)-5-(7-(chroman-4-ylcarbamoyl)-6-fluoro-3-phenylquinoxalin-2-yl)pentanoic acid]
- Ki ([3H]PGD2 competition, Table B): 2.1 to 20 nM
